Measured values taken from patent US5484940A, “Substituted 3-indolyl-5-pyrazolone compounds” (priority 1994, dated 1996).

Experiments:
[1] = system: β-amyloid peptide production; assay: Cellular screen for inhibitors of β-amyloid production (ELISA, 293 751 SWE cells); assay type: cell-based, human; details: 2 h pretreatment + 2 h, normalized for cytotoxicity (MTT), concentration not given
Method in brief: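 293 751 SWE cells (K293 stably expressing APP751 Swedish mutant) pretreated 2 h with compound, then fresh compound-containing medium for 2 h more at 37 °C. Secreted β-amyloid in conditioned medium quantified by sandwich ELISA (capture 266 anti-Aβ13-28, labelled 6C6 anti-Aβ1-16) against a standard curve as ng/mL; mean ± SD of ≥6 replicates.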

Ultraviolet absorption = assay type: physicochemical; details: 0.1 mg/mL in methanol, 1 cm quartz cuvette
Experimental: The ultraviolet (UV) absorption properties of two representative substituted 3-indolyl-5-pyrazolones were evaluated and compared to indomethacin [1-(4-chlorobenzoyl)-5-methoxy-2-methyl-^1 H-indole-3-acetic acid], a compound known to absorb UV light (See page 4855 of the Merck Index, 10th Edition, Windholz, et al. Editor (1983)). Specifically, 0.1 mg/mL of 3-indolyl-5-pyrazolone (Ex. 9 or 33) or indomethacin in methanol was added to a quartz cuvette (1 cm) and the UV absorption of this solution was then measured at a wavelength of from 200 nm to 800 nm (Examples 9 and 33) and from 190 nm to 800 nm.

293 751 SWE cells = assay: Cytotoxicity (MTT) in 293 751 SWE cells; assay type: cell-based, human; details: concentration not given
Method in brief: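 Used HEK293 cells stably expressing APP751 carrying the Swedish double mutation (K651N/M652L), plated at 1.5-2.5×10^4 cells/well in DMEM + 10% FBS. MTT was added to a final 1 mg/mL for 1 h at 37 °C, then lysed in SDS/DMF (pH 4.7) overnight. Viability was read as OD562 − OD650.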

5-lipoxygenase = target: T1, 5-lipoxygenase (Rattus norvegicus, UniProt P12527); assay: 5-Lipoxygenase inhibition (5-HETE radioimmunoassay); assay type: biochemical; details: crude enzyme from RBL-1 cells, read-out: Percent Inhibition (5-lipoxygenase)
T1 construct: crude 5-lipoxygenase enzyme from rat basophilic leukemia cells (RBL-1); endogenous in cells; host or cells: RBL-1 (rat basophilic leukemia cells), crude enzyme
T1 sequence (P12527 1-673): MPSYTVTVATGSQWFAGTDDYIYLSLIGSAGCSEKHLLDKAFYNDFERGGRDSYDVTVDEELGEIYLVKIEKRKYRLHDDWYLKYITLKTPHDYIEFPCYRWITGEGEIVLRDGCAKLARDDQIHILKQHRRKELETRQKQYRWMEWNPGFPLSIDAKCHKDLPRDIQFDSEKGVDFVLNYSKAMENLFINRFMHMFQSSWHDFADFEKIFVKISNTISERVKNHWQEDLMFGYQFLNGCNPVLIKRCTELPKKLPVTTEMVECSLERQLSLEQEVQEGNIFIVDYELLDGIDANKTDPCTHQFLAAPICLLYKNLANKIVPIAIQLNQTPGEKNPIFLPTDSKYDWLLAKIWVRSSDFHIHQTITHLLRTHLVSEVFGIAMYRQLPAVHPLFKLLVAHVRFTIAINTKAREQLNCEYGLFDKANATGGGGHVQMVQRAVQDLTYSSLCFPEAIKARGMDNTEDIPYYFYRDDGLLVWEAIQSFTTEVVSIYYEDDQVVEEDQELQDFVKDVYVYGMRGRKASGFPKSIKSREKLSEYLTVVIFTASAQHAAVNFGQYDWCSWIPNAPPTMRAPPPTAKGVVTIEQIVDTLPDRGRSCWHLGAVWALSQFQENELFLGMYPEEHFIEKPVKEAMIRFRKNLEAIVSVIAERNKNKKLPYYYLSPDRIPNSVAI
Experimental: 5-Lipoxygenase catalyzes the oxidative metabolism of arachidonic acid to 5-hydroperoxyeicosatetraenoid acid ([…]), the initial reaction leading to the formation of the leukotrienes^18. Accordingly, compounds inhibiting 5-lipoxygenase activity are art recognized to have anti-inflammatory properties.
The ability of test compounds to inhibit 5-lipoxygenase activity was determined in assays^19 using crude 5-lipoxygenase enzyme from rat basophilic leukemia cells (RBL-1). Test compounds are pre-incubated with the enzyme for 5 minutes at room temperature and the reaction is initiated by addition of substrate (arachidonic acid). Following an 8 minute incubation at room temperature, the reaction is terminated by addition of citric acid, and levels of 5-HETE determined by 5-HETE radioimmunoassay.

rat cortical neurons = assay: Inhibition of toxicity of β-amyloid peptide to rat neuronal cells (alamarBlue); assay type: cell-based; details: 10 to 20 μM β-amyloid peptide, 2-3 days; on average where more than one duplicate experiment; compound concentration not stated
Experimental: (§1) The purpose of this test is to determine the effect of 3-indolyl-5-pyrazolone compounds on the toxicity of β-amyloid peptide to neuronal cells.
Primary rat cortical cultures were established from 18 day rat fetuses. Cortical tissue was dissociated by incubation in a trypsin/EDTA solution (0.05% trypsin+0.53 mM EDTA in HBSS; GIBCO Laboratories, Grand Island, N.Y., USA) for 20 minutes at 37° C. The trypsin was then inactivated by resuspending the cells in serum-containing medium (DMEM/FBS): Dulbecco's Modified Eagles' Medium (DMEM) containing 4.5 g/L glucose, 1 mM sodium pyruvate, 1 mM glutamine, 100 Units/mL penicillin, 100 μg/mL streptomycin, and supplemented with 10% heat-inactivated fetal bovine serum (GIBCO Laboratories, Grand Island, N.Y., USA). Cells were then pelleted by centrifugation and resuspended in a chemically-defined medium (DMEM/B27: DMEM containing B27 supplement; GIBCO Laboratories, Grand Island, N.Y., USA) in place of FBS. Polyethyleneimine (PEI; Sigma Chemical Company, St. Louis, Mo., USA)-coated 6.4 mm (96-well) dishes were timed once with DMEM/FBS, and then seeded at 0.75 to 1.25×10^5 cells per well in 0.1 mL DMEM/B27. Cultures were maintained in a H2 O-saturated incubator with an atmosphere of 90% air/10% CO2 at 37° C. Cell viability was visually assessed by phase contrast microscopy and quantified by measuring the reduction of alamarBlue™ (Alamar biosciences, Inc., Sacramento, Calif., USA) as described below. Serum replacement with B27 supplement yields nearly pure neuronal cultures as judged by immunocytochemistry for glial fibrillary acidic protein and neuron-specific enolase (Brewer, et al.^20)
(§2) β-amyloid peptide stock solutions were prepared as 1 mM stocks in sterile, doubly distilled water immediately prior to addition to cultures. Rat cortical neurons were exposed to β-amyloid peptide by removing the culture medium and replacing it with DMEM/N2 (GIBCO Laboratories,Grand Island, N.Y., USA) containing 10 to 20 μM β-amyloid peptide. Human cortical neurons were exposed to test compound plus β-amyloid peptide by removing the culture medium and replacing it with MEM containing 50 μM β-amyloid peptide. Cultures were maintained for 2-3 days before neuronal survival was quantified using alamarBlue™.
(§3) The alamarBlue™ assay incorporates a fluorometric/colorimetric metabolic indicator (Alamar Biosciences, Inc. Sacramento, Calif., USA). Viable cells convert alamarBlue™ from an oxidized (non-fluorescent, blue) form to a reduced (fluorescent, red) form. Assays were preformed by replacing the culture media with a 10% alamarBlue™ solution in DMEM (rat cortical cultures) or MEM (human cortical cultures).

human cortical neurons = assay: Inhibition of toxicity of β-amyloid peptide to human neuronal cells (alamarBlue); assay type: cell-based; details: 50 μM β-amyloid peptide, 2-3 days; on average where more than one duplicate experiment; compound concentration not stated
Experimental: as §1
Primary Human Cortical Cell Culture
Primary human cortical cultures were prepared using a modification of the procedure described by Seubert, et al.^21 Following filtration through Nitex nylon screens, cortical tissue was resuspended in a trypsin/EDTA solution (0.05% trypsin+0.53 mM EDTA in HBSS; GIBCO Laboratories, Grand Island, N.Y., USA) and kept at 37° C. for 20 minutes. The trypsin was then inactivated by resuspending the cells in serum-containing medium (MEM/FBS: Modified Eagles' Medium (MEM) containing 1% glucose, 1 mM sodium pyruvate, 1 mM glutamine, and supplemented with 10% fetal bovine serum (GIBCO). Cells were then pelleted by centrifugation and resuspended in a chemically-defined medium (MEM/B27: MEM containing B27 supplement in place of FBS; GIBCO). Polyethyleneimine (PEI; Sigma Chemical Company, St. Louis, Mo., USA)-coated 6.4 mm (96-well) dishes were rinsed once with MEM/FBS, and then seeded at 0.75 to 1.25×10^5 cells per well in 0.1 mL MEM/B27. Cultures were maintained in a H2 O-saturated incubator with an atmosphere of 95% air/5% CO 2 at 37° C. The culture medium was exchanged twice weekly. Cell viability was visually assessed by phase contrast microscopy and quantified by measuring the reduction of alamarBlue™ (Alamar Biosciences, Inc., Sacramento, Calif., USA).
as §2, §3

## COc1ccc2c(c1)c(CC1=NN(C3CCCCC3)C(=O)C1)c(C)n2C(=O)c1ccc(Cl)cc1 [Example 9, 3-[1-(4-chlorobenzoyl)-5-methoxy-2-methyl-3-indolylmethyl]-1-cyclohexyl-5-pyrazolone]
[1]
  reduction of β-amyloid peptide production as compared to control: at least 20%
Ultraviolet absorption
  Abs (at λmax): 2.3299
  E = Extinction coefficient: 23.29 AU/mg/mL/cm
  λmax: 251 nm
  λother (shoulder): 318 nm
293 751 SWE cells
  cytotoxic effect on the 293 751 SWE cells: did not have a significant cytotoxic effect
5-lipoxygenase; 6 μM compound
  inhibition at 6 µM: 75%

## COc1ccc2c(c1)c(CC1=NN(C(C)(C)C)C(=O)C1)c(C)n2C(=O)c1ccc(Cl)cc1 [Example 14, 3-[1-(4-chlorobenzoyl)-5-methoxy-2-methyl-3-indolylmethyl]-1-t-butyl-5-pyrazolone]
[1]
  reduction of β-amyloid peptide production as compared to control: at least 20%
293 751 SWE cells
  cytotoxic effect on the 293 751 SWE cells: did not have a significant cytotoxic effect
5-lipoxygenase; 7.5 μM compound
  inhibition at 7.5 µM: 48%

## COc1ccc2c(c1)c(CC1=NN(c3ccc(Cl)c(Cl)c3)C(=O)C1)c(C)n2C(=O)c1ccc(Cl)cc1 [Example 33, 3-[1-(4-chlorobenzoyl)-5-methoxy-2-methyl-3-indolylmethyl]-1-(3,4-dichlorophenyl)-5-pyrazolone]
Rat cortical neurons
  inhibition of the toxicity of β-amyloid peptide to rat neuronal cells: at least 10%
[1]
  reduction of β-amyloid peptide production as compared to control: at least 20%
Human cortical neurons
  inhibition of the toxicity of β-amyloid peptide to human neuronal cells: at least 25%
Ultraviolet absorption
  Abs (at λmax): 2.3458
  E = Extinction coefficient: 23.46 AU/mg/mL/cm
  λmax: 254 nm
  λother (shoulder): 318 nm
293 751 SWE cells
  cytotoxic effect on the 293 751 SWE cells: did not have a significant cytotoxic effect

## COc1ccc2c(c1)c(CC(=O)O)c(C)n2C(=O)c1ccc(Cl)cc1 [indomethacin, 1-(4-chlorobenzoyl)-5-methoxy-2-methyl-^1 H-indole-3-acetic acid, reference compound]
Ultraviolet absorption
  Abs (at λmax): 2.3996
  E = Extinction coefficient: 23.99 AU/mg/mL/cm
  λmax: 246 nm
  λother (shoulder): 318 nm
